From patent publication US20110152267A1, “Compositions and Methods for Treating Hyperproliferative Disorders” (Texas Tech University System, priority 2009, published 2011)

What was measured:
[1] = tested on: CRL-2091 normal human fibroblast cell line; experiment: DIMSCAN cytotoxicity, fenretinide + L-threo-sphinganines 3:1 (Example B1); format: cell-based; conditions: CRL-2091, 20% O2, 96 h
Description: (§1) Cytotoxicity Assay—Once again, cytotoxicity is determined using the DIMSCAN assay system (R. Proffitt et al., Cytometry 24, 204-213 (1996); T. Frgala et al., Mol Cancer Ther. 6:886-97, 2007). The system employs digital imaging microscopy to quantify viable cells, which selectively accumulate fluorescein diacetate to become brightly fluorescent. The system is capable of measuring cytotoxicity over a 4-5 log dynamic range by quenching the residual fluorescence of dead and dying cells with eosin Y and quantifying the total fluorescence of viable cells using digital thresholding. Measured fluorescence is directly proportionate to the number of viable cells. A comparison of the total fluorescence of a drug-treated cell population to the fluorescence of a similar number of untreated cells yields a survival fraction. In brief, 2000 to 10,000 cells/well (depending on size and growth rates) are replicate plated into 60 wells of a 96-well tissue culture plate in 0.1 mL of whole medium and allowed to attach overnight. Drug(s) are then added in 0.05 mL of whole medium to the final concentrations indicated. Drugs (fenretinide, and various chain length L-threo-sphinganines) were tested both as single agents and in a 3:1 ratio of fenretinide:sphinganine. C18-L-threo-sphinganine, or “safingol,” was also tested and results shown for reference. There are 12 wells treated per drug concentration. Twelve wells receive drug vehicle-only to the appropriate final concentration and serve as controls for the plate. Cells are incubated for 96 hours at 37° C. in ambient air with 5% CO2. Fluorescein diacetate is then added to each well in 0.05 mL media to a final concentration of 8 microgram/mL. Cells are incubated for a further 15 minutes at 37° C. and 0.03 mL of 0.5% eosin Y is added to each well. Total fluorescence of viable cells is then measured by digital imaging microscopy. Results were graphed as the ratio of the fluoresecence of drug-treated wells to non-drug treated control wells (i.e., Survival Fraction). All tests were performed at least twice. Representative results are shown.
(§2) The Combination Index (CI) is a term to describe mathematical modeling of the pharmacologic effects on cytotoxicity (cell death) of two drugs in combination based. Cytotoxic “synergy” is defined as a cell death affect which is greater than would be expected from a simple product of the single agent cytotoxicities alone (i.e. an “additive” effect). By Chou-Talalay analysis, a CI<0.9 on a Fraction Affected (“Fa”, i.e. fraction of cells killed) indicates synergy, with smaller numbers indicating greater synergy; a CI of 0.9-1.1 signifies an additive or near-additive effect; and a CI>1.1 means the drug combination is antagonistic.
(§3) Fenretinide and L-threo-sphinganines tested in normal human fibroblast (normal skin cell) cell lines, CRL-2091 and CRL-2076.

[2] = tested on: CRL-2076 normal human fibroblast cell line; experiment: as above; format: cell-based; conditions: CRL-2076, 20% O2, 96 h
Description: as §1, §2, §3

[3] = tested on: LNCaP prostate adenocarcinoma cell line; experiment: DIMSCAN cytotoxicity, fenretinide + L-threo-sphinganines 3:1 (Example B16); format: cell-based, human; conditions: LNCaP.FGC
Description: as §1, §2
Fenretinide and L-threo-sphinganines tested in human prostate adenocarcinoma (prostate cancer) cell line, LNCaP.

[4] = 4-HPR 1.5 μM + L-threo-sphinganine 0.5 μM
[5] = 4-HPR 3 μM + L-threo-sphinganine 1 μM
[6] = 4-HPR 6 μM + L-threo-sphinganine 2 μM
[7] = 4-HPR 9 μM + L-threo-sphinganine 3 μM

| SMILES | CI (Combination Index) [1, 4] | Fa (fraction affected) [1, 4] | CI (Combination Index) [1, 5] | Fa (fraction affected) [1, 5] | CI (Combination Index) [1, 6] | Fa (fraction affected) [1, 6] | CI (Combination Index) [1, 7] | Fa (fraction affected) [1, 7] | CI (Combination Index) [2, 4] | Fa (fraction affected) [2, 4] | CI (Combination Index) [2, 5] | Fa (fraction affected) [2, 5] | CI (Combination Index) [2, 6] | Fa (fraction affected) [2, 6] | CI (Combination Index) [2, 7] | Fa (fraction affected) [2, 7] | other results |
| --- | --- | --- | --- | --- | --- | --- | --- | --- | --- | --- | --- | --- | --- | --- | --- | --- | --- |
| CCCCCCCCCCCC[C@H](O)[C@@H](N)CO [C15] | >1 | 0.26 | >1 | 0.39 | >1 | 0.29 | >1 | 0.66 | 1 | 0.08 | >1 | 0.09 | >1 | 0.06 | >1 | 0.07 | – |
| CCCCCCCCCCC[C@H](O)[C@@H](N)CO [C14] | >1 | 0.32 | >1 | 0.40 | >1 | 0.21 | >1 | 0.69 | >1 | 0.10 | >1 | 0.10 | >1 | 0.12 | >1 | 0.08 | – |
| CCCCCCCCC[C@H](O)[C@@H](N)CO [C12] | >1 | 0.27 | 0.76 | 0.44 | >1 | 0.42 | >1 | 0.54 | 1 | 0.17 | >1 | 0.30 | >1 | 0.29 | >1 | 0.30 | CI [3, 4]: 0.5; Fa [3, 4]: 0.870; CI [3, 5]: 0.3; Fa [3, 5]: 0.982; CI [3, 6]: 0.4; Fa [3, 6]: 0.996; CI [3, 7]: 0.4; Fa [3, 7]: 0.999 |
